Columns and labels:
MAO-B [1] = target: T1, MAO-B (Homo sapiens (Human), UniProt P27338); assay: Competitive binding test against MAO-B with [3H] THK-5351; conditions: for IC50: MAO-B membrane fractions, label ligand [3H] THK-5351; for binding to MAO-B (in words): competitive binding test
Method: MAO-B (M7441) was purchased from Sigma Aldrich Co. LLC (St. Louis, MO). The MAO-B membrane fractions (0.5 μg), and 0.1 to 10,000 nM of [3H] […] The reaction solution was transferred to MultiScreen HTS 96-well […] filtration plate (Millipore, Billerica, MA), and a B/F separation was conducted with a MultiScreen HTS Vacuum Manifold, and the mixture was washed with Dulbecco's PBS, and 0.1% BSA three times, and the filter was incubated with 2 mL of Scintillation fluid (Emulssifer-Safe; Perkin Elemer, Boston, MA), and a radio activity was measured with a beta counter (LS6500 liquid scintillation counter, Beckman Counter, Brea, CA). IC50 value was calculated by using Graph Pad Prism Version 7 (GraphPad Software, San Diego, CA).

tau = tau (Homo sapiens, UniProt P10636); assay: Competitive binding against tau in Alzheimer's disease brain with [3H] MK-6240; conditions: for IC50: Alzheimer's disease brain (Braak stage VI), label ligand [3H] MK-6240; for binding to tau (in words): competitive binding test
Method: A binding affinity against tau containined in a AD brain was conducted by using Alzheimer's disease brain (Braak stage VI) and [3H] MK-6240 (manufactured by Metck & Co) as a label ligand. The IC50 value was calculated similarly to the case of MAO-B.

MAO-A = MAO-A (Homo sapiens (Human), UniProt P21397); assay: Competitive binding test against MAO-A with [18F] Fluoroethyl harmine; conditions: for IC50: label ligand [18F] Fluoroethyl harmine; for binding against MAO-A (in words): competitive binding test
Method: MAO-A (M7316) was purchased from Sigma Aldrich Co. LLC (St. Louis, MO). The […] (0.5 μg) and 0.1 to 10,000 nM of [^18F] Fluoroethyl harmine (10 μCi/mL, 2 nM) […] were mixed (200 μL), and the mixture was reacted at room temperature for 1 hour. The reaction solution was transfered to MultiScreen HTS 96-well 0.65 μm filtration plate (Millipore, Billerica, MA), and a B/F separation was conducted with MultiScreen HTS Vacuum Manifold, and washed with Dulbecco's PBS and 0.1% BSA three times, and a radioactivity contained in a filter was measured with a gamma counter (AccFLEX γ7000, manufactured from ALOKA Co. Ltd.). The IC50 value was calculated similarly to the case of MAO-B.

[2] = Dynamic evaluation (body distribution) in normal mouse; type: in vivo; conditions: bone accumulation, male ICR mouse
Method: Each saline containing [^18F] HK-5470 as the compound of the present invention, (S)-[^18F] HK-5174 as the comparative compound, or [^18F] HK-5351 as the ^18F labeled-compound (740 kBq) was administered intravenously via tail to male ICR mouse (6 weeks old), and after 2 min., 10 min., 30 min., 60 min., and 120 min., cervical dislocation of mouse was performed under ether anesthesia, and each organ tissue including brain was extracted, and a weight and a radioactivity of each organ was measured with Gamma counter (AccuFLEX γ7000, measured by Hitachi-Aloka Medical, Tokyo). The accumulation of radioactivity was evaluated by making the ratio of radioactivity per weight of tissue against total administered radioactivity (% Injected Dose/g of tissue; % ID/g) an index. The evaluation was conducted in a ratio of four per group.

MAO-B [3] = target: T1, MAO-B; assay: In vitro autoradiography of human necropsy brain sections; type: binding
Method: Each […] slice frozen section of a normal necropsy brain (person) and an Alzheimer's disease necropsy brain (person; neurofibrillary tangles stage was Braak stage VI) was dried at room temperature, and phosphate buffered saline (PBS) was added thereto and the wetting treatment was consucted for 30 minutes. Pre-incubation was conducted for 30 minutes by using PBS containing 1% bovine serum albumin (BSA). A PBS (370 kBq/mL) containing 1% BSA of the ^18F labeled compound were added dropwise to the section, and the reaction was conducted at room temperature for 30 minutes. In order to evaluate a specific binding to MAO-B, a similar reaction to the above reaction was conducted in the presence of MAO-B selective inhibitor (that is, Lazabemide) (10 μM). After that, the section was washed by soaking it in PBS containing 1% BSA for 5 minutes, and further in PBS for 5 minutes twice. After the section was dried at room temperature, an imaging plate (GE healthcare, BAS-MS 2025) was exposed to light, and an image (spartial resolution 25 μm×25 μm) was acquired by a FLA-9500 imaging analyzer plate (GE healthcare). The adjacent sections were subjected to an immunostaining using MAO-B (manufactured from Sigma, Aldrich, Co. LLC), AT8 tau (manufactured from Innogenetics, N.V.), or 6F/3D 6-amyloid (DAKO) antibody, and the resulting stainned distributions were compared with a distribution of a binding to tracer. Similar tests were conducted by using as comparative compound, (S)-[^18F] HK-5174 (WO 2017/103257 A1), and(S)-[^18F] THK-5351, each having the following structural formula respectively.

Sequence of MAO-A (P21397 whole entry): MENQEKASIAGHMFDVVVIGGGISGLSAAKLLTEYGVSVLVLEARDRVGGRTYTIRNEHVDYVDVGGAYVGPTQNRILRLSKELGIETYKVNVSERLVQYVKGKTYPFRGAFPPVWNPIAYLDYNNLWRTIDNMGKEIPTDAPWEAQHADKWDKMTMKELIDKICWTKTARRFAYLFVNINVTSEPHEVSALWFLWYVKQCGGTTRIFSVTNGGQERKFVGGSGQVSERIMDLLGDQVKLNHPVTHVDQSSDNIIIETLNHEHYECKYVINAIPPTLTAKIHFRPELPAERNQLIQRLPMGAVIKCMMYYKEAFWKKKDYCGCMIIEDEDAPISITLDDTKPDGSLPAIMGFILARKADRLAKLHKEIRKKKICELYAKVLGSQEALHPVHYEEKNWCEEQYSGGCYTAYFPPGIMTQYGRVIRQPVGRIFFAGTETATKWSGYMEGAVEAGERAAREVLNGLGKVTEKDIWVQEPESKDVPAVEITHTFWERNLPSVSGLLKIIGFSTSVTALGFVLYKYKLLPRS
Sequence of tau (P10636 2-758 limits assumed): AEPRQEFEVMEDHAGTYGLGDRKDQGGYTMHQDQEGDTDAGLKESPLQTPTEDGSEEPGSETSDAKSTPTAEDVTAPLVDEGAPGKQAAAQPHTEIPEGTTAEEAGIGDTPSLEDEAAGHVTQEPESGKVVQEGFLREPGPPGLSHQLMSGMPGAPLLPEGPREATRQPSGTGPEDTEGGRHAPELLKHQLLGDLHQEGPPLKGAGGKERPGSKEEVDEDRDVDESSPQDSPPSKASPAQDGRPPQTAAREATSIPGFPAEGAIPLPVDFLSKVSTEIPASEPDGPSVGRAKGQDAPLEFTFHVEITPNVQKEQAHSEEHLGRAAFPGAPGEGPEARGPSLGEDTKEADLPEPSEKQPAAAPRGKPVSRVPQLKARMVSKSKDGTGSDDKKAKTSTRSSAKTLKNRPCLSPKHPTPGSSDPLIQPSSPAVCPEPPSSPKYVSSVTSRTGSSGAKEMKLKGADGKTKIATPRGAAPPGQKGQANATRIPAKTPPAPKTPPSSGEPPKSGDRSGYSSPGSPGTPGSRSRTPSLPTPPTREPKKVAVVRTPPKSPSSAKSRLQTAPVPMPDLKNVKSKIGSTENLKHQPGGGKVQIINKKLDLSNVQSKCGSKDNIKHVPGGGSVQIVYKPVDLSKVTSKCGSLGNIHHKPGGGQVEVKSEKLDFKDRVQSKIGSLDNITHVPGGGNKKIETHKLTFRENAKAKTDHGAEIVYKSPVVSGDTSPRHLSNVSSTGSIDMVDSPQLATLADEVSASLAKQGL
T1 sequence (P27338 whole entry): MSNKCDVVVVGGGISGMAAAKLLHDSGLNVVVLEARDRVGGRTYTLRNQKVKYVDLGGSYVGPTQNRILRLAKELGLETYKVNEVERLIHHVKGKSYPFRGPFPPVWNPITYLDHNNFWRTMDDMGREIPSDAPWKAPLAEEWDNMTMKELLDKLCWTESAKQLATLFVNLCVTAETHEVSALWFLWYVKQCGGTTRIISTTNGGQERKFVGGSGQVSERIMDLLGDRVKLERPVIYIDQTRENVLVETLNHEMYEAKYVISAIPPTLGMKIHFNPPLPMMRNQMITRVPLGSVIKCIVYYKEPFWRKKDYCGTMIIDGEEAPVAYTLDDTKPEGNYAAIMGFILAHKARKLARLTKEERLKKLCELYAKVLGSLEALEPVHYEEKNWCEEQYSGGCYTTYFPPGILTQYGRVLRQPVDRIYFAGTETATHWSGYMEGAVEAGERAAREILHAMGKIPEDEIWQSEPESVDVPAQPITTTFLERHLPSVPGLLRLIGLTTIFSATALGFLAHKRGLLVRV

SMILES | IC50 (MAO-B [1]) | binding to MAO-B (in words) (MAO-B [1]) | IC50 (tau) | binding to tau (in words) (tau) | IC50 (MAO-A) | binding against MAO-A (in words) (MAO-A) | defluorination to bone [2] | accumulation in Alzheimer's disease (AD) frontal lobe sections (MAO-B [3]; 18F labeled compound 370 kBq/mL, autoradiography) | binding in the presence of MAO-B selective inhibitor Lazabemide (MAO-B [3]; Lazabemide 10 μM, AD frontal lobe section) | specificity of binding (autoradiography conclusion) (MAO-B [3]; human brain sections, compared with MAO-B and tau immunostaining)
CNc1ccc(-c2ccc3cc(OC[C@H](O)CF)ccc3n2)cn1 [THK-5351, reference compound] | 5 nM | high binding | 150 nM | mild binding | > 10000 nM | – | – | – | – | –
Cc1cc(-c2ccc3cc(OC[C@H](O)CF)ccc3n2)ccn1 [THK-5471] | 12.9 nM | significantly high binding | 192 nM | low binding | 1740 nM | low binding | – | – | – | –
Cc1ncccc1-c1ccc2cc(OC[C@H](O)CF)ccc2n1 [THK-5472] | 550 nM | – | > 10000 nM | low binding | > 10000 nM | low binding | – | – | – | –
Cc1ccc(-c2ccc3cc(OC[C@H](O)CF)ccc3n2)cn1 [THK-5470] | – | – | 4460 nM | – | 713 nM | – | – | – | – | –
Cc1cncc(-c2ccc3cc(OC[C@H](O)CF)ccc3n2)c1 [THK-5474] | 12.2 nM | significantly high binding | 9630 nM | low binding | > 10000 nM | low binding | – | – | – | –
Cc1ccncc1-c1ccc2cc(OC[C@H](O)CF)ccc2n1 [THK-5473] | 294 nM | – | > 10000 nM | low binding | > 10000 nM | low binding | – | – | – | –
CNc1ccc(-c2ccc3cc(OC[C@H](O)C[18F])ccc3n2)cn1 [[^18F] THK-5351] | – | – | – | – | – | – | could not be confirmed | high accumulation | decrease in the binding | binds to both MAO-B and tau

Source: patent US12522579B2, “Monoamine oxidase B imaging probe” (TOHOKU UNIVERSITY, priority 2018, dated 2026)
